Where “and” joins values, the source holds several entries; their conditions need not be identical. Equal values may be shown once.
Assays:
[1] = test system: P. falciparum schizonts; assay: Washout egress assay, hemoglobin release into culture supernatants; assay type: cell-based; conditions: Plasmodium falciparum; 4 h pretreatment, then washout
Procedure: Short-term egress, invasion, and washout assays were performed essentially as described previously ([27], [28], [42]). Briefly, highly synchronous mature Percoll-enriched schizonts with or without added fresh RBCs (∼5% parasitaemia final) were incubated with compounds under test or vehicle only (DMSO, 1% vol/vol). For washout assays, schizonts were treated with C2 or various concentrations of inhibitor 3j for 1 to 4 h, then washed extensively (at least four times) prior to addition to fresh RBCs where required. After incubation at 37 °C for just 1 to 4 h (or overnight for invasion assays) to allow schizont rupture, cells were pelleted. Clarified culture supernatants were assessed for extent of hemoglobin release (a measure of schizont rupture) by absorption spectroscopy at 415 nm as described previously ([28]) or analyzed by Western blot using antibodies against SERA5 ([7], [11]). To quantify generation of new rings, samples of the cultures were fixed with 4% paraformaldehyde/0.02% glutaraldehyde and stained with SYBR Green I (Life Technologies) and then analyzed by flow cytometry on a BD FACSVerse using BD FACSuite software. Data were analyzed using FlowJo software. All cultures were also routinely analyzed by microscopic examination of Giemsa-stained thin films to visually assess parasite morphology.

[2] = biological target: T1, recombinant PfSUB1 (rPfSUB1) (Plasmodium falciparum, UniProt Q8I0V0); assay: rPfSUB1 fluorogenic peptide substrate cleavage inhibition assay; assay type: biochemical; conditions: fluorogenic peptide substrate; mean ± SD of at least three measurements; read-out: IC50 (nM) (rPfSUB1)
T1 construct: Chymotrypsin-treated rPfSUB1 (expressed and purified as described previously); made in house
T1 sequence (Q8I0V0 218-688): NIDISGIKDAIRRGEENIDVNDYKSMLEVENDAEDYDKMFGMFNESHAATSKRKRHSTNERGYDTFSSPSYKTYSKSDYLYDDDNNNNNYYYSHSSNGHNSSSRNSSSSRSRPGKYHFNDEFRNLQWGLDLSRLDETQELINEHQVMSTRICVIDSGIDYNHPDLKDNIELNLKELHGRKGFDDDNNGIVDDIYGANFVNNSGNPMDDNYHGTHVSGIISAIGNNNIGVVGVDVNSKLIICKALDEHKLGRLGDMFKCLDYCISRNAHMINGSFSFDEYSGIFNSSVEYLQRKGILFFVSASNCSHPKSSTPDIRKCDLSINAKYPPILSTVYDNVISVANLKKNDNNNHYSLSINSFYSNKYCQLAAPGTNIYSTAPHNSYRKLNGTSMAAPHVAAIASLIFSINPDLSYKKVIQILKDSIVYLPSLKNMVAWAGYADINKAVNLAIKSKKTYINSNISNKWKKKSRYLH
From the text: We previously described the development of a fluorescence-based in vitro assay suitable for the evaluation of substrate-based PfSUB1 inhibitors, using recombinant PfSUB1 (rPfSUB1) and fluorogenic peptide substrates based on cleavage sites within endogenous protein substrates of PfSUB1 ([13], [21]). […] This was perhaps unsurprising due to the high molecular mass and polar nature of these compounds, including the presence of a carboxylic acid moiety that was designed to mimic endogenous PfSUB1 protein substrates by interacting with the basic S’ surface of the PfSUB1 active-site cleft ([16]). Collectively, these features likely rendered the compounds poorly membrane penetrant.
Fluorescence of this peptide is quenched by rhodamine dimerization in the intact substrate but increases upon cleavage at the internal Q-D bond. Chymotrypsin-treated rPfSUB1 (expressed and purified as described previously ([16]) was stored at −80 °C as a 228 U/mL stock in 20 mM Tris–HCl pH 8.2, 150 mM NaCl, 10% glycerol, and diluted for use (1:500 or 1:600) in reaction buffer (20 mM Tris–HCl pH 8.2, 150 mM NaCl, 12 mM CaCl2, 25 mM CHAPS). Peptidic boronic acid inhibitors were dissolved in 100% DMSO at 10 or 20 mM, then further diluted in DMSO to generate stock solutions ranging from 500 to 0.01 μM and then used diluted 1:100 in the enzyme reactions. All reactions were performed in wells of white 96-well microwell plates (Nunc); 50 μL diluted rPfSUB1 was preincubated for 5 min with 1 μL each of the serially diluted boronic acid inhibitors, followed by addition of 50 μL substrate solution (0.1 μM final). Subsequent fluorescence increase was continuously monitored using a SpectraMax M5e plate reader and SoftMax Pro-6.3 software, with readings taken every 5 min for 60 min using excitation and emission values of 552 and 580 nm, respectively. […] All experiments were performed in duplicate.

[3] = test system: P. falciparum schizonts; assay: MitoTracker Red CMXRos viability staining; assay type: cell-based, Plasmodium falciparum; conditions: 10 μM, 1 h
Procedure: Viewing chambers for live parasite microscopic examination were constructed as previously described ([7]). All images were recorded on a Nikon Eclipse Ni light microscope fitted with a Hamamatsu C11440 digital camera and Nikon N Plan Apo λ 63×/1.45NA oil immersion objective. For time-lapse video microscopy, differential interference contrast (DIC) images were taken at 10 s intervals over 30 min while fluorescence (mNeon Green) images were taken every 2 min to prevent bleaching. Time-lapse videos were analyzed and annotated using Fiji ([44]). For viability staining using the vital mitochondrial dye MitoTracker Red CMXRos (ThermoFisher Scientific; stored as a 10 μM stock in DMSO), the dye was added (20 nM final concentration) to a suspension of schizonts pretreated for 1 h with either DMSO (control, 1% vol/vol) or compound 3j (10 μM). The schizonts were incubated with the dye for 15 min at 37 °C, then washed twice, transferred to a viewing chamber, and observed immediately by dual DIC/fluorescence microscopy.

[4] = test system: asexual blood-stage P. falciparum (clone 3D7); assay: SYBR Green I parasite growth assay; assay type: cell-based, Plasmodium falciparum
Procedure: The impact of the peptidic boronic acids on replication of asexual blood-stage P. falciparum (clone 3D7) was assessed using a SYBR Green I assay, essentially as described by Smilkstein et al. ([22]). Briefly, test compounds (dissolved in dimethyl sulfoxide [DMSO] at concentrations ranging from 4 mM to 5 μM) were added in triplicate to wells of flat bottomed, 96-well microtitre plates (1 μL per well). Wells were then supplemented with 100 μL per well of a P. falciparum parasite culture at 0.1% parasitaemia, 1% hematocrit. Each assay plate also included DMSO-only control wells (1% vol/vol), as well as additional control wells containing uninfected RBCs only. Plates were incubated in sealed, humidified gassed chambers at 37 °C for 96 h to allow the parasites to undergo two entire cycles of erythrocytic growth. Wells were then supplemented with 100 μL 1:5,000 dilution of stock SYBR Green I (Life Technologies, catalog no. S7563) diluted in 20 mM Tris HCl pH 7.5, 5 mM EDTA, 0.008% (weight/vol) saponin, 0.08% (vol/vol) Triton ×100. Plates were agitated to mix, incubated for a further 1 h in the dark at room temperature, then 150 μL samples from each well transferred to a fresh white microwell plate and fluorescence quantified using a SpectraMax M5e plate reader and SoftMax Pro-6.3 software (Ex 485 nm/Em 530 nm). IC50 values were determined from dose–response curves obtained after subtracting background fluorescence values (obtained from the RBC-only wells) from all experimental readings.

CC(=O)NC(C(=O)NC(C(=O)NCC(=O)NC(C)B(O)O)C(C)C)C1CCCC1 (stereo not drawn) [3j]
EC50 [1]: ~2000 nM | IC50 [2]: ~5.7 nM and 5.7 nM | viability (MitoTracker Red CMXRos incorporation) [3]: remained viable | EC50 ([4]; Plasmodium falciparum, 3D7, 96 h, two erythrocytic growth cycles, SYBR Green I): 0.26 ± 0.06 µM | improved growth inhibitory potency ([4]; relative to compound 3b): ~10 fold | higher potency in long-term growth assay ([4]; relative to short-term egress assays): ~10 fold

Reference: article PMC8157947, “Peptidic boronic acids are potent cell-permeable inhibitors of the malaria parasite egress serine protease SUB1” (Proceedings of the National Academy of Sciences of the …, 2021)
